“Also recorded” adds a separate entry of the source.
Key:
[1] = test system: NADH production by serine catabolism; test: In vivo [2,3,3-2H]serine infusion, malate labeling; settings: WT C57BL6/J mice, SHIN2 200 mg/kg ip single injection before 2.5 h tracer infusion
Protocol: Mouse breeding and isotope tracing. Animal studies followed protocols approved by the Princeton University Institutional Animal Care and Use Committee and the Rutgers University Institutional Animal Care and Use Committee. NDUFS4+/− mice were purchased from Jackson Laboratory. The mice were on normal light cycle (7 AM-7 PM). In vivo infusion was performed on 9-week old normal C57BL/6 mice pre-catheterized on the right jugular vein, and 4-week old NDUFS4−/− or NDUFS4+/+ mice pre-catheterized on the jugular vein. Infusion was performed for 2.5 h to achieve isotopic pseudo-steady state. The mouse infusion setup included a tether and swivel system, connecting to the button pre-implanted under the back skin of mice. Mice were fasted from 9:00 am to 2 pm, and infused from 2 pm till 4:30 pm. […]
Calculation of 2H-serine contribution to malate, aspartate, and NADH: For malate and aspartate, the 2H-labeling fraction was measured directly (fractional size of 2H-peak relative to sum of all peaks, after isotope correction as above). For NADH, the 2H-labeling fraction was measured based on the active hydride labeling (x), which was determined from the labeling pattern of NAD+ and NADH by least square fitting in MATLAB of the observed experimental data (after natural isotope correction) to the below vectors (Liu et al., 2016a). […]

NDUFS4−/− mice = test: Treatment of NDUFS4−/− mice (mitochondrial disease model); format: in vivo
Protocol: NDUFS4−/− mice were housed with normal mice and gel food was supplied to guarantee sufficient food supply. Mice were grouped as vehicle control group and SHIN2 treatment groups. SHIN2 was dissolved in 20% 2-hydroxypropyl-cyclodextrin solution, and delivered by intraperitoneal (50 μg/g mice) b.i.d. Mice weights were recorded every day. Limb clasps were recorded daily, with mice annotated as having the pathological limb clasping phenotype on the third consecutive day of clasping. 20% weight loss of the peak weight for each mouse is considered as the humane endpoint.
Mouse Model. B6.129S4-Ndufs4+/− mice were purchased from Jackson laboratories. The mice are heterozygous for a protein in mitochondrial complex 1 and have been bred to generate homozygous knockout mouse for the study of mitochondrial deficiency. These mice are a model of mitochondrial disease and knockouts are healthy until approximately 5 weeks age, but develop lethal encephalomyopathy by 7 weeks.
Treatment strategy: Mice were grouped as vehicle treatment group and KDG112 treatment group. KDG112 was dissolved in 20% hydroxypropyl cyclodextrin to a final concentration of 5 mg/ml. Mice were dosed B.I.D at 50 mg/kg ip. Mice weight and body temperature are recorded, and body condition score were given according to the chart below.

[2] = KDG112 50 mg/kg ip B.I.D, compared to vehicle

Cc1n[nH]c2c1C(c1cc(C#CCCCO)cc(CO)c1)(C(C)C)C(C#N)=C(N)O2 (stereo not drawn) [SHIN2]
malate labeling from [2,3,3-2H]serine (NADH production by serine catabolism) [1]: blocks NADH production by serine catabolism in vivo; also recorded: blocked most malate labeling
body condition score (NDUFS4−/− mice; [2]): lower score
body temperature (NDUFS4−/− mice; [2]): higher body temperature
locomotor activity (NDUFS4−/− mice; [2]): better locomotor activity
symptoms of hind limb clasp (NDUFS4−/− mice; [2]): delayed symptoms of hind limb clasp
pathological limb clasping (NDUFS4−/− mice; SHIN2 50 mg/kg b.i.d. from postnatal day 25±4, versus vehicle, 50 mg/kg): Delayed occurrence of limb clasping; also recorded: delayed pathological clasping behavior
survival (NDUFS4−/− mice; SHIN2 50 mg/kg b.i.d. versus vehicle, p=0.18, log-rank Test): not significantly altering survival
time after day 49 until hind limb clasping symptoms develop (NDUFS4−/− mice; first pair of pups, KDG112 treated mouse): 10 days
leg control and cage edge test (NDUFS4−/− mice; first pair of pups, day 49 (P49), treatment from P29): can control its leg normally as wild type, and can walk freely on the edge test
body weight (NDUFS4−/− mice; first pair of pups, day 63): still maintains its weight
day at which symptoms such as hind limb clasping develop (NDUFS4−/− mice; second pair of pups, KDG112 treated mouse): 47 days
behaviour (NDUFS4−/− mice; second pair of pups, day 38, treatment from P28): behaves normally

— patent US20230100559A1, “Compositions and Methods for Treatment of Disease by Manipulation of Serine Metabolism” (The Trustees of Princeton University, priority 2020, published 2023)
